Measured values taken from patent publication US9895346B2, “Applications of substituent benzyloxy group containing ether compounds for preparing antitumor drugs” (Sinochem Corporation, priority 2013, dated 2018).

Columns and labels:
[1] = tested on: prostate cancer cell line LNCap; test: In vitro cell inhibition assay (crystal violet), prostate cancer LNCap; assay type: cell-based, human
Source text: (§1) In vitro Cell inhibition assay is as follows:
(§2) The human cancer cell lines used for this assay were bladder cancer J82, T24, prostate cancer LNCap, PC-3, lung cancer A549, H157, H460, H520, colon cancer HCT8, HCT116, RkO, and leukemia HL-60, etc.
(§3) In vitro cell culture technology was selected for the determination of inhibition rate bladder cancer cell lines J82 and T24, prostate cancer cell lines LNCap and PC-3, lung cancer cell lines A549, H157, H460 and H520. 1000 to 3000 cells were inoculated to 24-well plate, followed by addition of 1 mL culture medium well known to researchers in this field to each well, the cells were cultured in 5% incubator for 24 hours at 37° C., then the different concentration compounds and controls were added to each well. It should be noted that the added volume is not more than 0.5% of total volume. After completion of addition, the cells continued being cultured in incubator for one week, the culture medium was removed and washed by cold PBS of 1 mL once, and then fixed for 10 minutes at room temperature with 1% formalin, followed by wash with PBS of 1 mL. After fixation, stain was carried out with 0.1% crystal violet for 30 minutes. 0.1% crystal violet was recycled. The stained cells were washed gently with deionized water, dried at room temperature and kepted. The inhibition rate was calculated according to the foiling equation. The controls are Selumetinib (AZD6244), Gefitinib, Cisplatin. Inhibition rate=number of left cells each treatment/number of left cells of untreated control×100%

[2] = tested on: lung cancer cell line A549; test: In vitro cell inhibition assay (crystal violet), lung cancer A549; assay type: cell-based, human
Outline: (§4)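 1000-3000 cells per well grown 24 h at 37 °C, then exposed to compound for one week (vehicle ≤0.5% of volume). Cells formalin-fixed and stained with 0.1% crystal violet. Inhibition rate = remaining cells in treated wells / remaining cells in untreated control × 100%.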

[3] = tested on: lung cancer cell line H520; test: In vitro cell inhibition assay (crystal violet), lung cancer H520; assay type: cell-based, human
Outline: as §4

[4] = tested on: bladder cancer cell line T24; test: In vitro cell inhibition assay (crystal violet), bladder cancer T24; assay type: cell-based, human
Source text: as §1, §2, §3

[5] = tested on: prostate cancer cell line PC-3; test: In vitro cell inhibition assay (crystal violet), prostate cancer PC-3; assay type: cell-based, human
Source text: as §1, §2, §3

[6] = tested on: lung cancer cell line H157; test: In vitro cell inhibition assay (crystal violet), lung cancer H157; assay type: cell-based, human
Source text: as §1, §2, §3

colon cancer HCT8 = test: In vitro cell inhibition assay, colon cancer HCT8; assay type: cell-based, human
Source text: as §1, §2

colon cancer HCT116 = test: In vitro cell inhibition assay, colon cancer HCT116; assay type: cell-based, human
Source text: as §1, §2

[7] = tested on: bladder cancer cell line J82; test: In vitro cell inhibition assay (crystal violet), bladder cancer J82; assay type: cell-based, human
Outline: as §4

[8] = tested on: lung cancer cell line H460; test: In vitro cell inhibition assay (crystal violet), lung cancer H460; assay type: cell-based, human
Outline: as §4

colon cancer RkO = test: In vitro cell inhibition assay, colon cancer RkO; assay type: cell-based, human
Source text: as §1, §2

[9] = tested on: human leukemia HL-60 cells; test: Proliferation inhibition of human leukemia HL-60 cells, MTT method; assay type: cell-based; details: 48 h incubation, OPTI-MEM medium
Outline: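 Cells at 5×10^4 cells/mL cultured overnight at 37 °C, 5% CO2, then exposed to compounds at different concentrations for 48 h. MTT added for 4 h, formazan dissolved in DMSO and absorbance read at 570 nm to give inhibition rate.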

[10] = Homo sapiens, 5.0 μM, read-out: Inhibition rate on human cancer cells

Cn1cnc2c(F)c(Nc3ccc(Br)cc3Cl)c(C(=O)NOCCO)cc21 [Selumetinib, reference compound]
0%: inhibition at 0.25 µM ([2]; Homo sapiens, A549, 0.25 μM, read-out: Inhibition rate on human cancer cells) | inhibition at 0.5 µM ([2]; Homo sapiens, A549, 0.5 μM, read-out: Inhibition rate on human cancer cells) | inhibition at 1 µM ([2]; Homo sapiens, A549, 1.0 μM, read-out: Inhibition rate on human cancer cells) | inhibition at 2.5 µM ([2]; Homo sapiens, A549, 2.5 μM, read-out: Inhibition rate on human cancer cells) | inhibition at 5 µM ([5]; Homo sapiens, PC-3, 5.0 μM, read-out: Inhibition rate on human cancer cells) | inhibition at 0.25 µM ([8]; Homo sapiens, NCI-H460, H460, 0.25 μM, read-out: Inhibition rate on human cancer cells) | inhibition at 0.5 µM ([8]; Homo sapiens, NCI-H460, H460, 0.5 μM, read-out: Inhibition rate on human cancer cells) | inhibition at 1 µM ([8]; Homo sapiens, NCI-H460, H460, 1.0 μM, read-out: Inhibition rate on human cancer cells) | inhibition at 2.5 µM ([8]; Homo sapiens, NCI-H460, H460, 2.5 μM, read-out: Inhibition rate on human cancer cells)
75%: inhibition at 0.5 µM (colon cancer HCT116; Homo sapiens, HCT 116, 0.5 μM, read-out: Inhibition rate on human cancer cells)
40%: inhibition at 2.5 µM (colon cancer HCT8; Homo sapiens, HCT 8, 2.5 μM, read-out: Inhibition rate on human cancer cells)
10%: inhibition at 5 µM ([2]; Homo sapiens, A549, 5.0 μM, read-out: Inhibition rate on human cancer cells)
30%: inhibition at 0.25 µM (colon cancer RkO; Homo sapiens, 0.25 μM, read-out: Inhibition rate on human cancer cells)
80%: inhibition at 1 µM (colon cancer HCT116; Homo sapiens, HCT 116, 1.0 μM, read-out: Inhibition rate on human cancer cells) | inhibition at 0.5 µM (colon cancer RkO; Homo sapiens, 0.5 μM, read-out: Inhibition rate on human cancer cells)
70%: inhibition at 5 µM ([4]; Homo sapiens, T24, 5.0 μM, read-out: Inhibition rate on human cancer cells) | inhibition at 5 µM ([7]; Homo sapiens, J82, 5.0 μM, read-out: Inhibition rate on human cancer cells)
60%: inhibition at 5 µM ([8]; Homo sapiens, NCI-H460, H460, 5.0 μM, read-out: Inhibition rate on human cancer cells)
90%: inhibition at 5 µM (colon cancer HCT116; Homo sapiens, HCT 116, 5.0 μM, read-out: Inhibition rate on human cancer cells) | inhibition at 2.5 µM (colon cancer RkO; Homo sapiens, 2.5 μM, read-out: Inhibition rate on human cancer cells)
50%: inhibition at 5 µM (colon cancer HCT8; Homo sapiens, HCT 8, 5.0 μM, read-out: Inhibition rate on human cancer cells) | inhibition at 0.25 µM (colon cancer HCT116; Homo sapiens, HCT 116, 0.25 μM, read-out: Inhibition rate on human cancer cells)
20%: inhibition at 5 µM [1, 10] | inhibition at 5 µM ([3]; Homo sapiens, NCI-H520, H520, 5.0 μM, read-out: Inhibition rate on human cancer cells) | inhibition at 5 µM ([6]; Homo sapiens, NCI-H157, H157, 5.0 μM, read-out: Inhibition rate on human cancer cells) | inhibition at 1 µM (colon cancer HCT8; Homo sapiens, HCT 8, 1.0 μM, read-out: Inhibition rate on human cancer cells)
95%: inhibition at 5 µM (colon cancer RkO; [10])
85%: inhibition at 2.5 µM (colon cancer HCT116; Homo sapiens, HCT 116, 2.5 μM, read-out: Inhibition rate on human cancer cells) | inhibition at 1 µM (colon cancer RkO; Homo sapiens, 1.0 μM, read-out: Inhibition rate on human cancer cells)

CCCCc1c(C)c2ccc(OCc3ccccc3/C(=C\OC)C(=O)OC)cc2oc1=O [Compound 28-72, coumoxystrobin]
>90%: Inhibition rate on human cancer cells ([3]; H520, 0.25 μM) | Inhibition rate on human cancer cells ([6]; H157, 0.25 μM)
47.9%: Proliferation inhibitory effect on human leukemia HL-60 cell (%) ([9]; concentration 10 μM)
80%: Inhibition rate on human cancer cells (colon cancer HCT116; HCT 116, 0.25 μM)
70%: Inhibition rate on human cancer cells ([7]; J82, 0.25 μM)
54.4%: Proliferation inhibitory effect on human leukemia HL-60 cell (%) ([9]; concentration 100 μM)
45.3%: Proliferation inhibitory effect on human leukemia HL-60 cell (%) ([9]; concentration 1 μM)
99%: Inhibition rate on human cancer cells (colon cancer HCT116; HCT 116, 1.0 μM)
95%: Inhibition rate on human cancer cells ([2]; A549, 1.0 μM) | Inhibition rate on human cancer cells (colon cancer HCT8; HCT 8, 0.5 μM) | Inhibition rate on human cancer cells (colon cancer HCT116; HCT 116, 0.5 μM) | Inhibition rate on human cancer cells ([7]; J82, 1.0 μM) | Inhibition rate on human cancer cells ([8]; H460, 0.25 μM) | Inhibition rate on human cancer cells (colon cancer RkO; 0.25 μM)
90%: Inhibition rate on human cancer cells ([2]; A549, 0.5 μM) | Inhibition rate on human cancer cells ([7]; J82, 0.5 μM)
100%: Inhibition rate on human cancer cells ([1]; 0.25 μM) | Inhibition rate on human cancer cells ([1]; 0.5 μM) | Inhibition rate on human cancer cells ([1]; 1.0 μM) | Inhibition rate on human cancer cells ([1]; 2.5 μM) | Inhibition rate on human cancer cells ([1]; 5.0 μM) | Inhibition rate on human cancer cells ([2]; A549, 2.5 μM) | Inhibition rate on human cancer cells ([2]; A549, 5.0 μM) | Inhibition rate on human cancer cells ([3]; H520, 0.5 μM) | Inhibition rate on human cancer cells ([3]; H520, 1.0 μM) | Inhibition rate on human cancer cells ([3]; H520, 2.5 μM) | Inhibition rate on human cancer cells ([3]; H520, 5.0 μM) | Inhibition rate on human cancer cells ([4]; T24, 0.25 μM) | Inhibition rate on human cancer cells ([4]; T24, 0.5 μM) | Inhibition rate on human cancer cells ([4]; T24, 1.0 μM) | Inhibition rate on human cancer cells ([4]; T24, 2.5 μM) | Inhibition rate on human cancer cells ([4]; T24, 5.0 μM) | Inhibition rate on human cancer cells ([5]; PC-3, 0.25 μM) | Inhibition rate on human cancer cells ([5]; PC-3, 0.5 μM) | Inhibition rate on human cancer cells ([5]; PC-3, 1.0 μM) | Inhibition rate on human cancer cells ([5]; PC-3, 2.5 μM) | Inhibition rate on human cancer cells ([5]; PC-3, 5.0 μM) | Inhibition rate on human cancer cells ([6]; H157, 0.5 μM) | Inhibition rate on human cancer cells ([6]; H157, 1.0 μM) | Inhibition rate on human cancer cells ([6]; H157, 2.5 μM) | Inhibition rate on human cancer cells ([6]; H157, 5.0 μM) | Inhibition rate on human cancer cells (colon cancer HCT8; HCT 8, 1.0 μM) | Inhibition rate on human cancer cells (colon cancer HCT8; HCT 8, 2.5 μM) | Inhibition rate on human cancer cells (colon cancer HCT8; HCT 8, 5.0 μM) | Inhibition rate on human cancer cells (colon cancer HCT116; HCT 116, 2.5 μM) | Inhibition rate on human cancer cells (colon cancer HCT116; HCT 116, 5.0 μM) | Inhibition rate on human cancer cells ([7]; J82, 2.5 μM) | Inhibition rate on human cancer cells ([7]; J82, 5.0 μM) | Inhibition rate on human cancer cells ([8]; H460, 0.5 μM) | Inhibition rate on human cancer cells ([8]; H460, 1.0 μM) | Inhibition rate on human cancer cells ([8]; H460, 2.5 μM) | Inhibition rate on human cancer cells ([8]; H460, 5.0 μM) | Inhibition rate on human cancer cells (colon cancer RkO; 0.5 μM) | Inhibition rate on human cancer cells (colon cancer RkO; 1.0 μM) | Inhibition rate on human cancer cells (colon cancer RkO; 2.5 μM) | Inhibition rate on human cancer cells (colon cancer RkO; 5.0 μM)
